Earlier results as cited in patent US20070003613A1, “Preparations to support maintenance of acid-alkaline balance in the human body and methods directed to using same” (priority 2005, published 2007).

Conditions: second dissociation

In the case of NCC(=O)O [glycine], the “pH at which the second H+ ion is liberated” value is given as 9.6.
